According to PMC12316928, “Synthesis and evaluation of novel thiohydantoin derivatives for antidiabetic activity using in silico in vitro and in vivo methods” (Scientific Reports, 2025):
In brackets after ≈: the same amount, converted by molar mass. Several values for one entry are separate records, joined by “and”; a condition that tells them apart may be missing. Identical values can stand only once. Entries after “also recorded” stand apart in the source; their conditions may differ.

Legend:
[1] = DPPH free radical scavenging assay
Procedure: The antioxidant activity of synthesized compounds was evaluated using the DPPH free-radical scavenging assay, following the methodology outlined by[34]. This assay is based on the principle that the stable free radical DPPH undergoes a color change from deep purple to yellow upon reduction, indicating hydrogen donation from antioxidant compounds. Different concentrations (3.12, 6.25, 12.5, 25, 50, 100, and 200 µg/mL) of test compounds were prepared in methanol. A 200 µL aliquot of each concentration was mixed with 50 µL of freshly prepared DPPH solution (0.659 mM). The reaction mixtures were incubated at room temperature for 20 min in the dark. Absorbance was recorded at 510 nm using an ELISA microplate reader. Trolox was employed as the reference antioxidant, and the percentage of inhibition was calculated using the following equation:
% Inhibition = [(A0 − A1)/A0] × 100.
Where A0 is the absorbance of the control, and A1 is the absorbance of the sample[34].

Cytotoxicity MTT assay = type: cell-based; settings: mouse, 3T3 fibroblast cells, 48 h, Mean ± SD, n = 3, read-out: IC₅₀ cytotoxicity MTT
Procedure: (§1) The cytotoxic effects of the selected compounds were evaluated against the 3T3 fibroblast cell line (Sigma-Aldrich, product no. 90020107) using the MTT (3-(4,5-dimethylthiazol-2-yl)−2,5-diphenyl tetrazolium bromide) assay, following the protocol established by Mosmann[38]. A cell suspension containing 1 × 10⁵ cells per well was seeded into a 96-well plate and incubated at 37 °C with 5% CO₂ for 48 h. The cells were then treated with different concentrations of test compounds (4, 16, 63, 250, and 1000 µg/mL, dissolved in DMSO) and incubated for an additional 48 h. Following incubation, 180 µL of MTT solution (5 mg/mL in PBS) was added to each well and incubated for 4 h. The formazan crystals formed were solubilized, and absorbance was measured at 570 nm using an ELISA reader. Celecoxib was used as a positive control.

3T3 fibroblast cell line = assay: Cytotoxicity MTT assay; type: cell-based
Procedure: as §1

[2] = target: T1, α-glucosidase (EC3.2.1.20) (Saccharomyces cerevisiae, UniProt P53341); assay: α-Glucosidase inhibitory activity assay; type: biochemical; settings: for inhibition at 200 µg/mL: read-out: %Inhibition (200 µg/ml) alpha glucosidase
T1 construct: purchased Sigma-Aldrich
Procedure: The ability of the synthesized compounds to inhibit α-glucosidase was determined as per the method described by[35]. […] After incubation at 37 °C for 10 min, the reaction was initiated by adding 25 µL of substrate (4 mM) and further incubating at 37 °C for 20 min. The absorbance was measured at 405 nm.

[3] = test system: STZ-induced diabetic rats; assay: Physiological parameters (lipid profile); type: in vivo, Sprague Dawley rats; settings: Fig. 1; for HDL / LDL / triglycerides: after treatment
Procedure: (§2) Diabetes will be induced in rats (n = 6 per group) by a single intraperitoneal injection of 60-100 mg/kg body weight (BW) streptozotocin dissolved in normal saline. After 5 days of streptozotocin injection, the tail vein blood will be collected to determine the fasting blood glucose (FBG) level. Only rats with FBG over 200 mg/dl will be considered diabetic and used for further experimentation.
Animals will be sacrificed after […] of treatment and parameters including LDL, triglycerides, HDL cholesterol, and glucose will be determined by using KONELAB SYSTEM (Thermo Fisher Scientific, Finland) according to manufacturer’s guidelines.

[4] = test system: STZ-induced diabetic rats; assay: Fasting blood glucose and oral glucose tolerance test (OGTT); type: in vivo, Sprague Dawley rats; settings: for OGTT (after 120 min): 120 min after glucose 2.0 g/kg; for Fasting blood glucose: Table 7, mean ± SD, 5 rats per group; for FBG and OGTT reduction in words: compared to diabetic control
Procedure: […] After 5 days of streptozotocin injection, the tail vein blood will be collected to determine the fasting blood glucose (FBG) level. Only rats with FBG over 200 mg/dl will be considered diabetic and used for further experimentation.
This assay will be performed in animals after fasting for an overnight (12 h). Then, rats will receive a bolus of glucose (2.0 g/kg body weight) followed by test molecule or control and plasma glucose will be measured from blood collected from tail vein at 0, 30, 60, 90 and 120 min after glucose administration. Plasma glucose levels will be analyzed using commercially available glucometer kits[40].

[5] = test system: STZ-induced diabetic rats; assay: Effect on FBG, body weight and HbA1C over 6 weeks; type: in vivo, Sprague Dawley rats; set-up: % Reduction in FBG: concentration or dose not given beside the values; settings: for BW (Day 0) / FBG (Day 0): Day 0, baseline; for % Change in BW / % Reduction in FBG: Day 0 to Day 42; for BW (Day 42) / FBG (Day 42): Day 42 of treatment; for HbA1C: end of 6-week treatment
Procedure: as §2
Diabetic Rats (n = 6 per group) will be randomly assigned to groups of six animals each in order to examine the impact of synthetic derivatives on FBG level, BW, and HbA1C. The course of treatment will last for six weeks. At the beginning of the experiment and at weekly intervals during the first 42 days of therapy, the FBG level and BW will be measured. Rats will be denied food for 12 h while fasting, but they will have unrestricted access to water. Commercial glucose oxidase kits will be used to measure the blood glucose level. Blood 7 will be collected through cardiac puncture at the end of study period and levels of HbA1C will be determined. Metformin will be used as standard for comparison purpose.

[6] = relative to positive control (diabetic rats), Fig. 2

T1 sequence (P53341 whole entry): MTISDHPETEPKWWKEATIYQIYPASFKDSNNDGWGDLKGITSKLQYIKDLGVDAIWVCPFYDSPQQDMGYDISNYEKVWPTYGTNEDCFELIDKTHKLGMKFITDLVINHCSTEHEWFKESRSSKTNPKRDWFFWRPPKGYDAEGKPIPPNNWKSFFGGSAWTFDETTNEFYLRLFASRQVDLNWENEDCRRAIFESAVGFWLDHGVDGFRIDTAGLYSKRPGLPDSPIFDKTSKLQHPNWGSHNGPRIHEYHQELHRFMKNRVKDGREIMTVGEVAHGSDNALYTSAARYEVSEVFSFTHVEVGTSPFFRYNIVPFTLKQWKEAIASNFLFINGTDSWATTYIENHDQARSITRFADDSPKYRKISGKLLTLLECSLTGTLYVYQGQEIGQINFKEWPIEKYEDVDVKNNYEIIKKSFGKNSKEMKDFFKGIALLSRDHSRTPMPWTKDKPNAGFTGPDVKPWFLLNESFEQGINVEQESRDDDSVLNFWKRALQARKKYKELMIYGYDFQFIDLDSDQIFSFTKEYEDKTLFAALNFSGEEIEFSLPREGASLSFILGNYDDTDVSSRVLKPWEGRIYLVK

Structure (SMILES) | DPPH free radical scavenging % inhibition ([1]; 3.12 µg/mL) | DPPH free radical scavenging % inhibition ([1]; 6.25 µg/mL) | DPPH free radical scavenging % inhibition ([1]; 12.5 µg/mL) | DPPH free radical scavenging % inhibition ([1]; 25 µg/mL) | DPPH free radical scavenging % inhibition ([1]; 50 µg/mL) | DPPH free radical scavenging % inhibition ([1]; 100 µg/mL) | DPPH free radical scavenging % inhibition ([1]; 200 µg/mL) | IC50 at 48 h (Cytotoxicity MTT assay) | Cytotoxicity category (3T3 fibroblast cell line) | inhibition at 200 µg/mL [2] | OGTT (after 120 min) [4] | Fasting blood glucose [4] | FBG and OGTT reduction in words [4] | percentage reduction in FBG [4, 6] | BW (Day 0) [5] | FBG (Day 0) [5] | % Reduction in FBG [5] | BW (Day 42) [5] | FBG (Day 42) [5] | HbA1C [5] | also measured
O=C1O[C@H]([C@@H](O)CO)C(O)=C1O [Ascorbic Acid, reference compound] | 30.2 ± 1.9% | 50.6 ± 2.5% | 68.9 ± 2.8% | 82.3 ± 3.1% | 89.6 ± 3.3% | 94.2 ± 3.5% | 96.8 ± 3.7% | – | – | – | – | – | – | – | – | – | – | – | – | – | –
Cc1ccc(-c2cc(C(F)(F)F)nn2-c2ccc(S(N)(=O)=O)cc2)cc1 [Celecoxib, reference compound] | – | – | – | – | – | – | – | 342 ± 9.7 µg/mL (≈ 897 µM) | Moderate cytotoxicity | – | – | – | – | – | – | – | – | – | – | – | –
O=C1CN(S(=O)(=O)c2cccc(C(=O)O)c2)C(=S)N1 [FP2, 3-(4-oxo-2-sulfanylideneimidazolidine-1-sulfonyl)benzoic acid] | 18.4 ± 1.3% | 31.3 ± 1.9% | 47.6 ± 2.4% | 62.9 ± 2.8% | 74.5 ± 3.1% | 79.8 ± 3.2% | 82.6 ± 3.3% | 845 ± 12.7 µg/mL (≈ 2810 µM) | Low cytotoxicity | 48.1 ± 0.94% | 288.0 ± 9.5 mg/dL | 229.9 ± 7.6 mg/dL | significant reductions | 18.5% | 218.3 ± 7.5 g | 280.5 ± 10.1 mg/dL | 24.9% | 202.8 ± 7.9 g | 210.7 ± 9.6 mg/dL | 7.5% and 7.5 ± 0.4% | IC₅₀ (concentration required to inhibit 50% of DPPH free radicals) [1]: 52.4 ± 2.5 µg/mL; lipid profile effect in words [3]: moderate improvements; % Change in BW [5]: −7.1%
CC(=O)c1cccc(S(=O)(=O)N2CC(=O)NC2=S)c1 [FP4, 1-(3-acetylbenzene-1-sulfonyl)−2-sulfanylideneimidazolidin-4-one] | 22.1 ± 1.5% | 38.2 ± 2.1% | 55.7 ± 2.6% | 71.6 ± 3.0% | 81.2 ± 3.5% | 85.9 ± 3.7% | 87.4 ± 3.9% | 598 ± 11.4 µg/mL (≈ 2010 µM) | Moderate cytotoxicity | 51.4 ± 1.25% | 275.2 ± 9.1 mg/dL | 218.4 ± 7.3 mg/dL | – | 22.6% | 215.9 ± 7.8 g | 279.1 ± 9.7 mg/dL | 28.9% | 205.7 ± 8.6 g | 198.4 ± 8.3 mg/dL | 7.2 ± 0.3% | IC50 ([2]; Mean ± SD, read-out: IC50 alpha glucosidase (converted)): 434 µM; HDL [3]: 42.3 ± 2.5 mg/dL; LDL [3]: 54.8 ± 3.1 mg/dL; triglycerides [3]: 112.5 ± 6.2 mg/dL; percentage reduction in OGTT [4, 6]: 19.4%; % Change in BW [5]: −4.7%
Cc1ccc(S(=O)(=O)N2CC(=O)NC2=S)cc1C(=O)O [FP5, 2-methyl-5-(4-oxo-2-sulfanylideneimidazolidine-1-sulfonyl)benzoic acid] | 17.8 ± 1.2% | 29.6 ± 1.7% | 44.5 ± 2.3% | 58.7 ± 2.6% | 69.3 ± 2.9% | 73.1 ± 3.1% | 78.9 ± 3.3% | 690 ± 13.2 µg/mL (≈ 2190 µM) | Low cytotoxicity | 33.2 ± 0.87% | 295.3 ± 9.9 mg/dL | 236.1 ± 8.1 mg/dL | significant reductions | 16.3% | 216.8 ± 8.1 g | 281.0 ± 9.9 mg/dL | 21.6% | 200.1 ± 8.5 g | 220.2 ± 9.2 mg/dL | 7.8% and 7.8 ± 0.3% | IC₅₀ (concentration required to inhibit 50% of DPPH free radicals) [1]: 58.1 ± 2.6 µg/mL; alpha-glucosidase inhibition in words [2]: inactive; lipid profile effect in words [3]: moderate improvements; % Change in BW [5]: −7.7%
COc1ccc(S(=O)(=O)N2CC(=O)NC2=S)cc1C(=O)O [FP6, 2-methoxy-5-(4-oxo-2-sulfanylideneimidazolidine-1-sulfonyl)benzoic acid] | 8.5 ± 0.8% | 16.2 ± 1.1% | 24.9 ± 1.6% | 36.4 ± 2.2% | 44.7 ± 2.5% | 49.8 ± 2.6% | 53.6 ± 2.8% | > 900 µg/mL | negligible cytotoxicity; also recorded: Non-toxic | 36.4 ± 1.03% | 307.5 ± 10.4 mg/dL | 249.1 ± 8.5 mg/dL | minor reductions | – | – | – | – | – | – | – | IC₅₀ cytotoxicity MTT (3T3 fibroblast cell line; 48 h, Mean ± SD, n = 3): 930.4 ± 10.6 µg/mL; alpha-glucosidase inhibition in words [2]: inactive
CN(C)C(=N)N=C(N)N [Metformin, reference compound] | – | – | – | – | – | – | – | – | – | – | 159.4 ± 8.3 mg/dL | 119.2 ± 6.5 mg/dL | – | – | 216.2 ± 8.0 g | 282.3 ± 10.5 mg/dL | 49.5% | 225.6 ± 9.4 g | 142.5 ± 7.8 mg/dL | 6.1 ± 0.3% | HDL [3]: 49.2 ± 2.7 mg/dL; LDL [3]: 45.1 ± 2.4 mg/dL; triglycerides [3]: 94.3 ± 5.1 mg/dL
OCCN1C[C@H](O)[C@@H](O)[C@H](O)[C@H]1CO [Miglitol, reference compound] | – | – | – | – | – | – | – | – | – | – | – | – | – | – | – | – | – | – | – | – | inhibition at 50 µg/mL ([2]; read-out: %Inhibition alpha glucosidase): 87.9 ± 1.09%
